Experimental data: patent EP2776398B1, “SUBSTITUTED PYRAZOLYL-BASED UREA DERIVATIVES AS VANILLOID RECEPTOR LIGANDS” (Medifron DBT Inc., priority 2011, dated 2013)

Molecular target: T1, vanilloid receptor 1 (VR1/TRPV1 receptor) (Homo sapiens, UniProt Q8NER1)
T1 construct: expressed in transfected cells; host or cells: CHO K1 cells (ECACC), stably transfected
Test: Functional testing on vanilloid receptor 1: FLIPR Ca2+ influx assay against capsaicin (Cap) in transfected CHO K1 cells (pharmacological method II); for Ki: 100 nM capsaicin
Type: cell-based
Set-up: key to (f) Ki (human being) [nM] Cap: agonist classification: AG = agonist
Settings: @ 5µM; human VR1 in CHO K1 cells; capsaicin; relative to maximum inhibition with 10 µM capsazepine; read-out: inhibition (as a percentage), printed in column (f) Ki (human being) [nM] Cap
Description: […]

T1 sequence (Q8NER1 whole entry): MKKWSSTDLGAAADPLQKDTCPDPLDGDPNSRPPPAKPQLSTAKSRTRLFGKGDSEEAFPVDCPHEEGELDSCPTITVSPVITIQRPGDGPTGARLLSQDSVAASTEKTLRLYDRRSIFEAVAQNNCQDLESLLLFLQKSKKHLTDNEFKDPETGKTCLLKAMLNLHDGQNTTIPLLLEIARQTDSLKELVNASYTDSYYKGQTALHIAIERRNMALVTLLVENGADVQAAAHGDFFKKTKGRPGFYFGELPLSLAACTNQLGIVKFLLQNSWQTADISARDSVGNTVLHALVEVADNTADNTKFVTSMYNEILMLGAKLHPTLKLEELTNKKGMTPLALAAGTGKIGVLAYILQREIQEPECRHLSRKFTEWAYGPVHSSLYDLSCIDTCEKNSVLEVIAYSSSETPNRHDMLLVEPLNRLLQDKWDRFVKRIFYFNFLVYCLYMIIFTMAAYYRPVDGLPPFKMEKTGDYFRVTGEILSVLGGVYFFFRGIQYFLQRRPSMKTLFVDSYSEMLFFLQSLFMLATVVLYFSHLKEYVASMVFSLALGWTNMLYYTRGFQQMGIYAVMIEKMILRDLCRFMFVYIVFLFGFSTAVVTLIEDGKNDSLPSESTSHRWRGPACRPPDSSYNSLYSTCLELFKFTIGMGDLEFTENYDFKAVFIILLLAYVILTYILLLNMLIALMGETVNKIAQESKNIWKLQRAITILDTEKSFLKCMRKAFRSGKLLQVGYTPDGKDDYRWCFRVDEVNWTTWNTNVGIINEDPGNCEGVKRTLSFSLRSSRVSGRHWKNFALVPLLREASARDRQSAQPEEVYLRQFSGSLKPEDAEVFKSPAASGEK

Point of comparison: O=C(NCc1cc(C(F)(F)F)nn1-c1cccc(Cl)c1)Nc1ccc(C(O)(CO)CO)cc1 [A158, 1-[[2-(3-Chlorophenyl)-5-(trifluoromethyl)-2H-pyrazol-3-yl]-methyl]-3-[4-[1,2-dihydroxy-1-(hydroxymethyl)-ethyl]-phenyl]-urea], inhibition at 5 µM 13%. Against it:
- CC(CO)(CO)c1ccc(NC(=O)NCc2cc(C(F)(F)F)nn2-c2cccc(Cl)c2)cc1 [A155, 1-[[2-(3-Chlorophenyl)-5-(trifluoromethyl)-2H-pyrazol-3-yl]-methyl]-3-[4-[2-hydroxy-1-(hydroxymethyl)-1-methyl-ethyl]-phenyl]-urea] — higher, 26%
- O=C(NCc1cc(C(F)(F)F)nn1-c1ccc(F)c(F)c1)Nc1ccc(COCCO)c(F)c1 [A132, 1-[[2-(3,4-Difluoro-phenyl)-5-(trifluoromethyl)-2H-pyrazol-3-yl]-methyl]-3-[3-fluoro-4-(2-hydroxy-ethoxy-methyl)-phenyl]-urea] — higher, 48%

Same assay, conditions: human VR1 in CHO K1 cells; AG printed instead of a Ki

With CC(C)(C)c1cc(CNC(=O)Nc2cc(F)c(O)c(F)c2)n(-c2cccc(Cl)c2)n1 [A11, 1-[[5-tert-Butyl-2-(3-chlorophenyl)-2H-pyrazol-3-yl]-methyl]-3-(3,5-difluoro-4-hydroxy-phenyl)-urea] the “(f) Ki (human being) [nM] Cap: agonist classification” value (shortened to “(f) Ki (human being) [nM] Cap”) was “AG”.
CC(C(=O)NCc1cc(C(C)(C)C)nn1-c1ccc(F)c(F)c1)c1ccc(CO)c(F)c1 (centres unmarked) [A39, N-[[5-tert-Butyl-2-(3,4-difluoro-phenyl)-2H-pyrazol-3-yl]-methyl]-2-[3-fluoro-4-(hydroxymethyl)-phenyl]-propionamide] was tested, and the “(f) Ki (human being) [nM] Cap” value was “AG”.
CC(C(=O)NCc1cc(C(C)(C)C)nn1-c1cccc(C(F)(F)F)c1)c1ccc(CO)c(F)c1 (centres unmarked) [A47, N-[[5-tert-Butyl-2-[3-(trifluoromethyl)phenyl]-2H-pyrazol-3-yl]-methyl]-2-[3-fluoro-4-(hydroxymethyl)-phenyl]-propionamide] was tested, and the “(f) Ki (human being) [nM] Cap” value was “AG”.
For CC(C(=O)NCc1cc(C(C)(C)C)nn1-c1cccc(Cl)c1)c1ccc(CO)c(F)c1 (centres unmarked) [A32, N-[[5-tert-Butyl-2-(3-chlorophenyl)-2H-pyrazol-3-yl]-methyl]-2-[3-fluoro-4-(hydroxymethyl)-phenyl]-propionamide], the “(f) Ki (human being) [nM] Cap” value was “AG”.
In the case of COc1cc(NC(=O)NCc2cc(C(F)(F)F)nn2-c2cccc(Cl)c2)ccc1O [A15, 1-[[2-(3-Chlorophenyl)-5-(trifluoromethyl)-2H-pyrazol-3-yl]-methyl]-3-(4-hydroxy-3-methoxy-phenyl)-urea], the “(f) Ki (human being) [nM] Cap” value is reported as “AG”.
For CC(C(=O)NCc1cc(C(C)(C)C)nn1-c1cccc(Cl)c1)c1ccc(CO)c(Cl)c1 (centres unmarked) [A51, N-[[5-tert-Butyl-2-(3-chlorophenyl)-2H-pyrazol-3-yl]-methyl]-2-[3-chloro-4-(hydroxymethyl)-phenyl]-propionamide], the “(f) Ki (human being) [nM] Cap” value was “AG”.

Same assay, conditions: read-out: (f) Ki (human being) [nM] Cap

Point of comparison: CC(C)(C)c1cc(CNC(=O)Nc2ccc(C(O)CO)c(F)c2)n(-c2cccc(Cl)c2)n1 (centres unmarked) [A150, 1-[[5-tert-Butyl-2-(3-chlorophenyl)-2H-pyrazol-3-yl]-methyl]-3-[4-(1,2-dihydroxy-ethyl)-3-fluoro-phenyl]-urea], Ki 19 nM. Against it:
- COc1c(F)cc(NC(=O)NCc2cc(C(F)(F)F)nn2-c2cccc(Cl)c2)cc1F [A8, 1-[[2-(3-Chlorophenyl)-5-(trifluoromethyl)-2H-pyrazol-3-yl]-methyl]-3-(3,5-difluoro-4-methoxy-phenyl)-urea] — 2.9-fold higher, 55 nM
- COc1cc(C)cc(-n2nc(C(F)(F)F)cc2CNC(=O)Nc2ccc(CO)c(F)c2)c1 [A92, 1-[3-Fluoro-4-(hydroxymethyl)-phenyl]-3-[[2-(3-methoxy-5-methyl-phenyl)-5-(trifluoromethyl)-2H-pyrazol-3-yl]-methyl]-urea] — the same, 19 nM
- CC(C)c1cccc(-n2nc(C(F)(F)F)cc2CNC(=O)Nc2ccc(CO)c(F)c2)c1 [A82, 1-[3-Fluoro-4-(hydroxymethyl)-phenyl]-3-[[2-(3-isopropyl-phenyl)-5-(trifluoromethyl)-2H-pyrazol-3-yl]-methyl]-urea] — 9.5-fold lower, 2 nM
- O=C(NCc1cc(C2CC2)nn1-c1cccc(Cl)c1)Nc1ccc(CO)c(F)c1 [A53, 1-[[2-(3-Chlorophenyl)-5-cyclopropyl-2H-pyrazol-3-yl]-methyl]-3-[3-fluoro-4-(hydroxymethyl)-phenyl]-urea] — within 1.5-fold, 18 nM
- CCOc1ccc(-n2nc(C(F)(F)F)cc2CNC(=O)Nc2ccc(CO)c(F)c2)cc1C [A79, 1-[[2-(4-Ethoxy-3-methyl-phenyl)-5-(trifluoromethyl)-2H-pyrazol-3-yl]-methyl]-3-[3-fluoro-4-(hydroxymethyl)-phenyl]-urea] — within 1.5-fold, 20 nM
- CCOc1ccc(C)cc1-n1nc(C(F)(F)F)cc1CNC(=O)Nc1ccc(CO)c(F)c1 [A88, 1-[[2-(2-Ethoxy-5-methyl-phenyl)-5-(trifluoromethyl)-2H-pyrazol-3-yl]-methyl]-3-[3-fluoro-4-(hydroxymethyl)-phenyl]-urea] — 4.5-fold higher, 86 nM
- COc1cccc(-n2nc(C(F)(F)F)cc2CNC(=O)C(C)c2ccc(COCCO)c(F)c2)c1 (centres unmarked) [A114, 2-[3-Fluoro-4-(2-hydroxy-ethoxy-methyl)-phenyl]-N-[[2-(3-methoxyphenyl)-5-(trifluoromethyl)-2H-pyrazol-3-yl]-methyl]-propionamide] — 2.4-fold higher, 46 nM
- COc1c(F)cc(CC(=O)NCc2cc(C(F)(F)F)nn2-c2cccc(Cl)c2)cc1F [A2, N-[[2-(3-Chlorophenyl)-5-(trifluoromethyl)-2H-pyrazol-3-yl]-methyl]-2-(3,5-difluoro-4-methoxy-phenyl)-acetamide] — 1.7-fold higher, 33 nM
- CC(C)(C)c1cc(CNC(=O)Nc2ccc(C(C)(CO)CO)c(F)c2)n(-c2cccc(Cl)c2)n1 [A156, 1-[[5-tert-Butyl-2-(3-chlorophenyl)-2H-pyrazol-3-yl]-methyl]-3-[3-fluoro-4-[2-hydroxy-1-(hydroxymethyl)-1-methyl-ethyl]-phenyl]-urea] — 4.4-fold higher, 84 nM
- CC(C(=O)NCc1cc(C(F)(F)F)nn1-c1cc(F)cc(F)c1)c1ccc(COCCO)c(F)c1 (centres unmarked) [A126, N-[[2-(3,5-Difluoro-phenyl)-5-(trifluoromethyl)-2H-pyrazol-3-yl]-methyl]-2-[3-fluoro-4-(2-hydroxy-ethoxy-methyl)-phenyl]-propionamide] — 4.2-fold higher, 79 nM
- CC(C)c1cccc(-n2nc(C(F)(F)F)cc2CNC(=O)C(C)c2ccc(COCCO)c(F)c2)c1 (centres unmarked) [A115, 2-[3-Fluoro-4-(2-hydroxy-ethoxy-methyl)-phenyl]-N-[[2-(3-isopropyl-phenyl)-5-(trifluoromethyl)-2H-pyrazol-3-yl]-methyl]-propionamide] — 6.3-fold lower, 3 nM
- Cc1cc(-n2nc(C(F)(F)F)cc2CNC(=O)Nc2ccc(CO)c(F)c2)ccc1F [A80, 1-[3-Fluoro-4-(hydroxymethyl)-phenyl]-3-[[2-(4-fluoro-3-methyl-phenyl)-5-(trifluoromethyl)-2H-pyrazol-3-yl]-methyl]-urea] — 2.7-fold lower, 7 nM
- CC(C)(C)c1cc(CNC(=O)Nc2ccc(CO)c(F)c2)n(-c2cccc(F)c2)n1 [A54, 1-[[5-tert-Butyl-2-(3-fluorophenyl)-2H-pyrazol-3-yl]-methyl]-3-[3-fluoro-4-(hydroxymethyl)-phenyl]-urea] — 3.2-fold lower, 6 nM
- O=C(NCc1cc(C(F)(F)F)nn1-c1cccc(Cl)c1)Nc1ccc(COCCO)c(F)c1 [A127, 1-[[2-(3-Chlorophenyl)-5-(trifluoromethyl)-2H-pyrazol-3-yl]-methyl]-3-[3-fluoro-4-(2-hydroxy-ethoxy-methyl)-phenyl]-urea] — 2.1-fold higher, 40 nM
- CC(C)(C)c1cc(CNC(=O)Nc2ccc(C3(O)COC3)cc2)n(-c2cccc(Cl)c2)n1 [A107, 1-[[5-tert-Butyl-2-(3-chlorophenyl)-2H-pyrazol-3-yl]-methyl]-3-[4-(3-hydroxy-oxetan-3-yl)-phenyl]-urea] — 2.4-fold higher, 45 nM
- CC(C(=O)NCc1cc(C(F)(F)F)nn1-c1cccc(Cl)c1)c1cc(F)c(CO)c(F)c1 (centres unmarked) [A52, N-[[2-(3-Chlorophenyl)-5-(trifluoromethyl)-2H-pyrazol-3-yl]-methyl]-2-[3,5-difluoro-4-(hydroxymethyl)-phenyl]-propionamide] — 7.4-fold higher, 140 nM
- O=C(NCc1cc(C(F)(F)F)nn1-c1ccc(F)c(F)c1)Nc1ccc(CO)c(F)c1 [A64, 1-[[2-(3,4-Difluoro-phenyl)-5-(trifluoromethyl)-2H-pyrazol-3-yl]-methyl]-3-[3-fluoro-4-(hydroxymethyl)-phenyl]-urea] — within 1.5-fold, 26 nM
- CC(C(=O)NCc1cc(C(C)(C)C)nn1-c1cccc(Cl)c1)c1ccc(COCCO)c(F)c1 (centres unmarked) [A117, N-[[5-tert-Butyl-2-(3-chlorophenyl)-2H-pyrazol-3-yl]-methyl]-2-[3-fluoro-4-(2-hydroxy-ethoxy-methyl)-phenyl]-propionamide] — 2.1-fold lower, 9 nM
- C[C@@H](C(=O)NCc1cc(C(F)(F)F)nn1-c1cccc(Cl)c1)c1ccc(CO)c(F)c1 [A35, (2R)-N-[[2-(3-Chlorophenyl)-5-(trifluoromethyl)-2H-pyrazol-3-yl]-methyl]-2-[3-fluoro-4-(hydroxymethyl)-phenyl]-propionamide] — 19-fold lower, 1 nM
- COCCOc1ccc(NC(=O)NCc2cc(C(F)(F)F)nn2-c2cccc(Cl)c2)cc1F [A18, 1-[[2-(3-Chlorophenyl)-5-(trifluoromethyl)-2H-pyrazol-3-yl]-methyl]-3-[3-fluoro-4-(2-methoxy-ethoxy)-phenyl]-urea] — 3.6-fold higher, 68 nM
- O=C(NCc1cc(C(F)(F)F)nn1-c1ccccc1F)Nc1ccc(CO)c(F)c1 [A61, 1-[3-Fluoro-4-(hydroxymethyl)-phenyl]-3-[[2-(2-fluorophenyl)-5-(trifluoromethyl)-2H-pyrazol-3-yl]-methyl]-urea] — within 1.5-fold, 26 nM
- O=C(NCc1cc(C(F)(F)F)nn1-c1cccc(F)c1)Nc1ccc(OCCO)c(F)c1 [A21, 1-[3-Fluoro-4-(2-hydroxy-ethoxy)-phenyl]-3-[[2-(3-fluorophenyl)-5-(trifluoromethyl)-2H-pyrazol-3-yl]-methyl]-urea] — 2.7-fold lower, 7 nM
